Test results from PubChem BioAssay (NCI).
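Five concentrations, 48 hours, 96-well plates. TGI denotes the concentration required for complete inhibition of growth.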

Key:
Assay in all cases: DTP human tumour cell line panel, 48 h
SW-620 colon = system: SW-620 colon
BT-549 breast = system: BT-549 breast
ACHN renal = system: ACHN renal
OVCAR-4 ovarian = system: OVCAR-4 ovarian
MOLT-4 leukemia = system: MOLT-4 leukemia
UACC-257 melanoma = system: UACC-257 melanoma
EKVX NSCLC = system: EKVX NSCLC
DU-145 prostate = system: DU-145 prostate
NCI-H226 lung = system: NCI-H226 lung
MCF7 breast = system: MCF7 breast
SK-MEL-5 melanoma = system: SK-MEL-5 melanoma
SR leukemia = system: SR leukemia
KM12 colon = system: KM12 colon
HCC-2998 colon = system: HCC-2998 colon
A498 renal = system: A498 renal
SNB-75 CNS = system: SNB-75 CNS
U251 CNS = system: U251 CNS
LOX IMVI melanoma = system: LOX IMVI melanoma
HL-60(TB) leukemia = system: HL-60(TB) leukemia
MDA-MB-435 = system: MDA-MB-435
NCI-H460 lung = system: NCI-H460 lung
SF-268 CNS = system: SF-268 CNS
NCI-H23 lung = system: NCI-H23 lung
MALME-3M melanoma = system: MALME-3M melanoma
HCT-15 colon = system: HCT-15 colon
SNB-19 CNS = system: SNB-19 CNS
HS 578T breast = system: HS 578T breast
OVCAR-5 ovarian = system: OVCAR-5 ovarian
SK-MEL-28 melanoma = system: SK-MEL-28 melanoma
CAKI-1 renal = system: CAKI-1 renal
HOP-62 NSCLC = system: HOP-62 NSCLC
SN12C renal = system: SN12C renal
A549 NSCLC = system: A549 NSCLC
TK-10 renal = system: TK-10 renal
RXF 393 renal = system: RXF 393 renal
HCT-116 colon = system: HCT-116 colon
NCI/ADR-RES ovarian = system: NCI/ADR-RES ovarian
SK-OV-3 ovarian = system: SK-OV-3 ovarian
786-0 renal = system: 786-0 renal
RPMI-8226 leukemia = system: RPMI-8226 leukemia
OVCAR-3 ovarian = system: OVCAR-3 ovarian
IGROV1 ovarian = system: IGROV1 ovarian
PC-3 prostate = system: PC-3 prostate
SK-MEL-2 melanoma = system: SK-MEL-2 melanoma
CCRF-CEM leukemia = system: CCRF-CEM leukemia
HT29 colon = system: HT29 colon
UACC-62 melanoma = system: UACC-62 melanoma
MDA-MB-231 breast = system: MDA-MB-231 breast
SF-539 CNS = system: SF-539 CNS
T-47D breast = system: T-47D breast
OVCAR-8 ovarian = system: OVCAR-8 ovarian
UO-31 renal = system: UO-31 renal
MDA-N = system: MDA-N
HOP-92 NSCLC = system: HOP-92 NSCLC
SF-295 CNS = system: SF-295 CNS
K-562 leukemia = system: K-562 leukemia
M14 melanoma = system: M14 melanoma
COLO 205 colon = system: COLO 205 colon
NCI-H522 lung = system: NCI-H522 lung

**Q.** What does the source list for CN(C)/C=N/S(=O)(=O)c1nn2c(C=O)c(-c3ccc(-c4ccc([N+](=O)[O-])cc4)o3)nc2s1?
**A.** TGI (SW-620 colon): > 23.5 µM; TGI (BT-549 breast): 8.05 µM; TGI (ACHN renal): 8.99 µM; TGI (OVCAR-4 ovarian): > 39.3 µM; TGI (MOLT-4 leukemia): 14.3 µM; TGI (UACC-257 melanoma): 24.3 µM; TGI (EKVX NSCLC): 21.1 µM; TGI (DU-145 prostate): 26.6 µM; TGI (NCI-H226 lung): > 64.7 µM; TGI (MCF7 breast): > 32.6 µM; TGI (SK-MEL-5 melanoma): 16.3 µM; TGI (SR leukemia): 5.4 µM; TGI (KM12 colon): > 49.1 µM; TGI (HCC-2998 colon): 14.7 µM; TGI (A498 renal): 54.2 µM; TGI (SNB-75 CNS): 36.6 µM; TGI (U251 CNS): > 30.2 µM; TGI (LOX IMVI melanoma): > 25 µM; TGI (HL-60(TB) leukemia): 2.54 µM; TGI (MDA-MB-435): 7.41 µM; TGI (NCI-H460 lung): 8.42 µM; TGI (SF-268 CNS): > 29 µM; TGI (NCI-H23 lung): 16.2 µM; TGI (MALME-3M melanoma): 4.15 µM; TGI (HCT-15 colon): 12.5 µM; TGI (SNB-19 CNS): 45.5 µM; TGI (HS 578T breast): > 21.8 µM; TGI (OVCAR-5 ovarian): > 30.5 µM; TGI (SK-MEL-28 melanoma): 6.22 µM; TGI (CAKI-1 renal): 4.06 µM; TGI (HOP-62 NSCLC): 27.7 µM; TGI (SN12C renal): 4.57 µM; TGI (A549 NSCLC): > 32.8 µM; TGI (TK-10 renal): 15.1 µM; TGI (RXF 393 renal): 5.04 µM; TGI (HCT-116 colon): 3.68 µM; TGI (NCI/ADR-RES ovarian): > 96.6 µM; TGI (SK-OV-3 ovarian): > 71.5 µM; TGI (786-0 renal): 2.47 µM; TGI (RPMI-8226 leukemia): 13.5 µM; TGI (OVCAR-3 ovarian): 8.41 µM; TGI (IGROV1 ovarian): 4.42 µM; TGI (PC-3 prostate): 14.3 µM; TGI (SK-MEL-2 melanoma): 25.9 µM; TGI (CCRF-CEM leukemia): 3.98 µM; TGI (HT29 colon): 2.19 µM; TGI (UACC-62 melanoma): 16.8 µM; TGI (MDA-MB-231 breast): 20 µM; TGI (SF-539 CNS): 11.8 µM; TGI (T-47D breast): > 44.6 µM; TGI (OVCAR-8 ovarian): > 38.8 µM; TGI (UO-31 renal): 5.99 µM; TGI (MDA-N): 2.7 µM; TGI (HOP-92 NSCLC): 8.12 µM; TGI (SF-295 CNS): > 46.5 µM

**Q.** For COC(Cc1ccccc1)NC(C)=O (centres undefined), which TGI (SW-620 colon) is on record?
**A.** Its TGI is over 100 µM.

**Q.** And the TGI (BT-549 breast)?
**A.** Its TGI is over 100 µM.

**Q.** And the TGI (ACHN renal)?
**A.** The TGI was over 100 µM.

**Q.** What about the TGI (OVCAR-4 ovarian) of the same compound?
**A.** The TGI was over 100 µM.

**Q.** And the TGI (K-562 leukemia)?
**A.** Its TGI is over 100 µM.

**Q.** What about the TGI (MOLT-4 leukemia) of the same compound?
**A.** The TGI was over 100 µM.

**Q.** What about the TGI (UACC-257 melanoma) of the same compound?
**A.** The TGI was over 100 µM.

**Q.** And the TGI (EKVX NSCLC)?
**A.** Its TGI is over 100 µM.

**Q.** And the TGI (DU-145 prostate)?
**A.** Its TGI is over 100 µM.

**Q.** What about the TGI (NCI-H226 lung) of the same compound?
**A.** Its TGI is over 100 µM.

**Q.** And the TGI (MCF7 breast)?
**A.** The TGI was over 100 µM.

**Q.** And the TGI (SK-MEL-5 melanoma)?
**A.** Its TGI is over 100 µM.

**Q.** What about the TGI (SR leukemia) of the same compound?
**A.** The TGI was over 100 µM.

**Q.** What about the TGI (KM12 colon) of the same compound?
**A.** Its TGI is over 100 µM.

**Q.** And the TGI (HCC-2998 colon)?
**A.** The TGI was over 100 µM.

**Q.** What about the TGI (M14 melanoma) of the same compound?
**A.** Its TGI is over 100 µM.

**Q.** What about the TGI (A498 renal) of the same compound?
**A.** Its TGI is over 100 µM.

**Q.** And the TGI (SNB-75 CNS)?
**A.** The TGI was over 100 µM.

**Q.** What about the TGI (U251 CNS) of the same compound?
**A.** The TGI was over 100 µM.

**Q.** What about the TGI (LOX IMVI melanoma) of the same compound?
**A.** Its TGI is over 100 µM.

**Q.** What about the TGI (COLO 205 colon) of the same compound?
**A.** The TGI was over 100 µM.

**Q.** And the TGI (HL-60(TB) leukemia)?
**A.** Its TGI is over 100 µM.

**Q.** And the TGI (MDA-MB-435)?
**A.** The TGI was over 100 µM.

**Q.** What about the TGI (NCI-H460 lung) of the same compound?
**A.** Its TGI is over 100 µM.

**Q.** And the TGI (SF-268 CNS)?
**A.** Its TGI is over 100 µM.

**Q.** And the TGI (NCI-H23 lung)?
**A.** Its TGI is over 100 µM.

**Q.** And the TGI (MALME-3M melanoma)?
**A.** The TGI was over 100 µM.

**Q.** And the TGI (HCT-15 colon)?
**A.** The TGI was over 100 µM.

**Q.** And the TGI (SNB-19 CNS)?
**A.** Its TGI is over 100 µM.

**Q.** And the TGI (HS 578T breast)?
**A.** The TGI was over 100 µM.

**Q.** What about the TGI (OVCAR-5 ovarian) of the same compound?
**A.** The TGI was over 100 µM.

**Q.** And the TGI (SK-MEL-28 melanoma)?
**A.** Its TGI is over 100 µM.

**Q.** And the TGI (CAKI-1 renal)?
**A.** Its TGI is over 100 µM.

**Q.** And the TGI (HOP-62 NSCLC)?
**A.** Its TGI is over 100 µM.

**Q.** And the TGI (SN12C renal)?
**A.** Its TGI is over 100 µM.

**Q.** What about the TGI (A549 NSCLC) of the same compound?
**A.** Its TGI is over 100 µM.

**Q.** And the TGI (TK-10 renal)?
**A.** The TGI was over 100 µM.

**Q.** What about the TGI (RXF 393 renal) of the same compound?
**A.** Its TGI is over 100 µM.

**Q.** What about the TGI (HCT-116 colon) of the same compound?
**A.** The TGI was over 100 µM.

**Q.** What about the TGI (NCI/ADR-RES ovarian) of the same compound?
**A.** Its TGI is over 100 µM.

**Q.** What about the TGI (SK-OV-3 ovarian) of the same compound?
**A.** Its TGI is over 100 µM.

**Q.** And the TGI (786-0 renal)?
**A.** Its TGI is over 100 µM.

**Q.** And the TGI (RPMI-8226 leukemia)?
**A.** The TGI was over 100 µM.

**Q.** And the TGI (NCI-H522 lung)?
**A.** The TGI was over 100 µM.

**Q.** And the TGI (OVCAR-3 ovarian)?
**A.** Its TGI is over 100 µM.

**Q.** What about the TGI (IGROV1 ovarian) of the same compound?
**A.** The TGI was over 100 µM.

**Q.** What about the TGI (PC-3 prostate) of the same compound?
**A.** The TGI was over 100 µM.

**Q.** What about the TGI (SK-MEL-2 melanoma) of the same compound?
**A.** The TGI was over 100 µM.

**Q.** And the TGI (CCRF-CEM leukemia)?
**A.** The TGI was over 100 µM.

**Q.** And the TGI (HT29 colon)?
**A.** Its TGI is over 100 µM.

**Q.** What about the TGI (UACC-62 melanoma) of the same compound?
**A.** The TGI was over 100 µM.

**Q.** What about the TGI (MDA-MB-231 breast) of the same compound?
**A.** Its TGI is over 100 µM.

**Q.** And the TGI (SF-539 CNS)?
**A.** The TGI was over 100 µM.

**Q.** And the TGI (T-47D breast)?
**A.** Its TGI is over 100 µM.

**Q.** What about the TGI (OVCAR-8 ovarian) of the same compound?
**A.** Its TGI is over 100 µM.

**Q.** What about the TGI (UO-31 renal) of the same compound?
**A.** Its TGI is over 100 µM.

**Q.** And the TGI (MDA-N)?
**A.** Its TGI is over 100 µM.

**Q.** What about the TGI (HOP-92 NSCLC) of the same compound?
**A.** Its TGI is over 100 µM.

**Q.** What about the TGI (SF-295 CNS) of the same compound?
**A.** The TGI was over 100 µM.
